The values below come from patent US20080221047A1, “Aminoakyl methacrylate copolymer E for maintaining solubility of poorly-soluble drug” (ASTELLAS PHARMA INC.,, priority 2006, published 2008).

A short description of data set [1]: Reprecipitation (dissolution) test for compound A dissolved in acetonitrile, Experimental Example 1. Format: physicochemical. As for the experimental part:
Each (50 mg) of the aminoalkyl methacrylate copolymer E having a solubility enhanced with acid prepared in Example 1, hydroxypropylmethylcellulose 2910 (TC-5E, Shin-Etsu Chemical Co., Ltd.), and copolyvidone (Kollidon VA-64, BASF) was dissolved in 500 mL of a second fluid for disintegrating test used in a disintegrating test described in the Japanese Pharmacopoeia fifteenth edition. For comparison, 500 mL of a second fluid for disintegrating test used in a disintegrating test described in the Japanese Pharmacopoeia fifteenth edition without such additives was prepared.
(§1) To each vessel, 2 mL of a solution of compound A (25 mg/mL) in acetonitrile was added, and an automated dissolution tester (manufactured by Toyama Sangyo Co., Ltd.) was used to carry out a reprecipitation test for compound A, in accordance with a dissolution test, method 2, described in the Japanese Pharmacopoeia. The ultraviolet absorbance of compound A was measured at a wavelength of 273 nm. The paddle rotation speed was 50 rpm. The percentage dissolved was calculated on the basis that an absorbance of 0.576 when measured using a 1 mm cell was regarded as a concentration of 100 μg/mL (compound A).

The nature of data set [2]: Reprecipitation (dissolution) test for compound A dissolved in polyethylene glycol 400, Experimental Example 2. Format: physicochemical. As to conditions: compound A in polyethylene glycol 400. As to the method: Each (50 mg) of the aminoalkyl methacrylate copolymer E having a solubility enhanced with acid prepared in Example 1, and hydroxypropylmethylcellulose 2910 (TC-5E, Shin-Etsu Chemical Co., Ltd.) was dissolved in 500 mL of a second fluid for dissolution test used in a dissolution test described in the Japanese Pharmacopoeia fifteenth edition. For comparison, 500 mL of a second fluid for dissolution test used in a dissolution test described in the Japanese Pharmacopoeia fifteenth edition without such additives was prepared.
as §1, with “polyethylene glycol 400 (Kanto Chemical Co., Inc.)” for “acetonitrile”

Data set [3] is described as follows: Reprecipitation test for compound A with copolymers of different amounts of neutralization, Experimental Example 3. Format: physicochemical. The settings on record: compound A in acetonitrile; fluid containing copolymer E of Examples 5, 6 or 7 (every Example). As for the experimental part:
Each of the aminoalkyl methacrylate copolymers E having a solubility enhanced with acid prepared in Examples 5, 6, and 7 was dissolved in 500 mL of a second fluid for dissolution test used in a dissolution test described in the Japanese Pharmacopoeia fifteenth edition.
To each vessel, 2 mL of a solution of compound A (25 mg/mL) in acetonitrile was added, and an automated dissolution tester (Toyama Sangyo Co., Ltd.) was used to carry out a reprecipitation test for compound A, in accordance with a dissolution test, method 2, described in the Japanese Pharmacopoeia. The absorbance of compound A was measured at a wavelength of 273 nm. The paddle rotation speed was 50 rpm. The percentage dissolved was calculated on the basis that an absorbance of 0.576 when measured using a 1 mm cell was regarded as a concentration of 100 μg/mL (compound A).

Data set [4] can be described thus: Reprecipitation test for compound A with copolymer solubilized with citric acid, Experimental Example 4. Format: physicochemical. As to conditions: compound A in acetonitrile; fluid containing copolymer E of Example 8 (citric acid). As to the method:
Each (50 mg) of the aminoalkyl methacrylate copolymers E having a solubility enhanced with acid prepared in Examples 1 and 8 was dissolved in 500 mL of a second fluid for disintegrating test used in a disintegrating test described in the Japanese Pharmacopoeia fifteenth edition. For comparison, 500 mL of a second fluid for disintegrating test used in a disintegrating test described in the Japanese Pharmacopoeia fifteenth edition without such additives was prepared.
To each vessel, 2 mL of a solution of compound A (25 mg/mL) in acetonitrile was added, and an automated dissolution tester (Toyama Sangyo Co., Ltd.) was used to carry out a reprecipitation test for compound A, in accordance with a dissolution test, method 2, described in the Japanese Pharmacopoeia. The ultraviolet absorbance of compound A was measured at a wavelength of 273 nm. The paddle rotation speed was 50 rpm. The percentage dissolved was calculated on the basis that an absorbance of 0.576 when measured using a 1 mm cell was regarded as a concentration of 100 μg/mL (compound A).

The conditions of data set [5]: cited from earlier work.
Data set [6] is described as follows: Reprecipitation (dissolution) test for tacrolimus dissolved in ethanol, Experimental Example 6. It is filed as physicochemical. As to the method:
Each (300 mg) of the aminoalkyl methacrylate copolymer E having a solubility enhanced with acid prepared in Example 4, and hydroxypropylmethylcellulose 2910 (TC-5E, Shin-Etsu Chemical Co., Ltd.) was dissolved in 300 mL of a second fluid for disintegrating test used in a disintegrating test described in the Japanese Pharmacopoeia fifteenth edition. For comparison, 300 mL of a second fluid for disintegrating test used in a disintegrating test described in the Japanese Pharmacopoeia fifteenth edition without such additives was prepared.
To each vessel, 1 mL of a solution of tacrolimus (100 mg/mL) in ethanol was added. Samples were taken at regular intervals, and centrifuged at 3000 rpm for 15 minutes. Tacrolimus dissolved in each supernatant was measured by a high performance liquid chromatography.

Where [7] appears, read: fluid containing hydroxypropylmethylcellulose 2910, after 2 hours.

For `Cc1cccc(C)c1N(CC(=O)Nc1ccc(-c2ncon2)cc1)C(=O)C1CCS(=O)(=O)CC1` [compound A, N-(2,6-Dimethylphenyl)-N-(2-{[4-(1,2,4-oxadiazol-3-yl)phenyl]amino}-2-oxoethyl)tetrahydro-2H-thiopyran-4-carboxamide 1,1-dioxide], the percentage dissolved result was “approximately 75%” in data set [1] (compound A in acetonitrile added to JP second fluid containing copolymer E of Example 1 (50 mg/500 mL), after 24 hours); “approximately 30%” in data set [1] (compound A in acetonitrile added to JP second fluid containing copolyvidone (50 mg/500 mL), after 2 hours); “approximately 30%” in data set [1] (compound A in acetonitrile added to JP second fluid containing hydroxypropylmethylcellulose 2910 (50 mg/500 mL), after 2 hours); “approximately 75%” in data set [2] (fluid containing copolymer E of Example 1, after 24 hours); “approximately 30%” in data set [2] (setting [7]). Moreover, the reprecipitation result in data set [1] (compound A in acetonitrile added to JP second fluid, absence of additives) was “reprecipitated immediately after the beginning of the test”; in data set [2] (absence of additives), “reprecipitated immediately after the beginning of the test”. Also, the maintenance of solubility result in data set [3] is “a high solubility was maintained for a long time”; in data set [4], “maintained for a long time”.

With `C=CC[C@@H]1/C=C(\C)C[C@H](C)C[C@H](OC)[C@H]2O[C@@](O)(C(=O)C(=O)N3CCCC[C@H]3C(=O)O[C@H](/C(C)=C/[C@@H]3CC[C@@H](O)[C@H](OC)C3)[C@H](C)[C@@H](O)CC1=O)[C@H](C)C[C@@H]2OC` [tacrolimus], the water solubility in data set [5] was at most 1 µg/mL. Besides, the reprecipitation entry in data set [6] (absence of additives) is recorded as “reprecipitated immediately after the beginning of the test”. The percentage dissolved in data set [6] (fluid containing copolymer E of Example 4, after 24 hours) was at least 90%; in data set [6] (setting [7]), “approximately 20%”.
